# Measured values from article PMC11666850, “Development and evaluation of deuterated [^18F]JHU94620 isotopologues for the non-invasive assessment of the cannabinoid type 2 receptor in brain” (EJNMMI Radiopharmacy and Chemistry, 2024).
# What was measured:
# hCB2R(D80N) = hCB2R(D80N) (Homo sapiens, UniProt P34972, D80N); settings: female, Wistar, rat, in vivo
# Experimental: The dynamic biodistribution of the radiotracer in the lower body of rats was assessed by small animal PET (Nanoscan, Mediso, Hungary) over 60 min with a subsequently T1-weighted MR. Anaesthetized (2% isoflurane, carrier gas mixture of 40% air and 60% O2) male Wistar rats (body weight: 205–308 g, age: 8–10 weeks, no gender-specific differences were taken into account) were kept during imaging on a heated animal bed to sustain body temperature and were pretreated with vehicle (DMSO:Kolliphore EL:0.9% saline, 1:2:7), JHU94620-d8 (1.5 mg kg^−1 bodyweight) or with GW405833 (5 mg kg^−1 bodyweight) 5 min prior tracer application ([^18F]JHU94620-d8: 7.7–28.2 MBq, 0.4 to 3.2 nmol kg^−1 bodyweight), whereby all injections were administered intravenously. For the evaluation of the hCB2R-specific binding of the radiotracer in the brain, female Wistar rats (n = 6, 253–269 g, age: 8 month) were used carrying stereotactically injected constructs of AAV2/7-CaMKII0.4-intron-hCB2R(D80N) in the right striatum and AAV2/7-CaMKII0.4-intron-3flag-eGFP in the control/contralateral striatum (Vandeputte et al. [2011]). 21–26 MBq corresponding to 0.2 to 2.0 nmol kg^−1 bodyweight radiotracer were injected, whereas in displacement studies 5 mg kg^−1 bodyweight GW405833 was administered 20 min after the radiotracer (each n = 3). The PET scans were performed six months after the stereotactic injections of the AAV2/7-constructs.
# The acquisitions were performed in normal mode and a coincidence mode 1–5. For subsequent dynamic reconstructions list mode data were sorted into sinograms (12 × 10 s, 6 × 30 s, 5 × 60 s and 10 × 300 s). The frames were reconstructed by Ordered Subset Expectation Maximization applied to 3D (OSEM3D) sinograms corrected for decay and attenuation (4 iterations, 6 subsets and a voxel size of 0.4 mm^3) with the Nucline software v2.01 (Mediso, Budapest, Hungary). Analyses of reconstructed studies were performed with PMOD software (v4.205, PMOD Technologies LLC, Fällanden, Switzerland) and results are expressed in standardized uptake values (SUVs) or normalized to a reference region (SUVr).
# (§1) From the wildtype rats used for in vivo metabolism studies a hematocrit content of 0.56 ± 0.04 (n = 11) was determined by a 5 min centrifugation of 50 µl blood in a hematocrit centrifuge at 500 g. The free plasma fraction (fp) of [^18F]JHU94620-d8 was determined gravimetrically by ultrafiltration of 100 µl rat plasma samples incubated for 5, 15, 30 and 60 min at 37 °C for 20 min at 14,000 g utilizing Nanosep® centrifugal filters (10 kDa, Pall Laboratory, USA). The brain PET images were co-registered to the PMOD integrated Px Rat (W. Schiffer) T2 MR template and the brain stem, cerebellum, left cortex and left midbrain region from the corresponding brain atlas were used for the determination of the regional TACs. Due to high spillover signals from the hCB2R(D80N) expressing region not all provided atlas regions could be evaluated. Subsequently, the total tissue distribution (VT) was estimated by 2-tissue compartment modelling. For correction of the TACs, an averaged image-derived input function (pIDIF, plasma-to-whole blood ratio corrected), determined in biodistribution studies and the parent fraction derived from metabolism studies in Wistar rats (Watabe fit) and pIDIF (3-exponential fit) were integrated into the modelling process. The binding potential was estimated by a simplified reference tissue modelling (SRTM) using the cerebellar region as reference. The parametric maps were generated with the PXMOD module.
# [1] = Ex vivo radiometabolite analysis in CD-1 mice
# Experimental: Female adult CD-1 mice (25–42 g body weight) were used for radiometabolite analysis of [^18F]JHU94620-d4 (n = 2, 33 and 34 MBq) and [^18F]JHU94620-d8 (n = 3, 26–33 MBq) at 30 min after intravenous tail vein injection of the radiotracer to allow for the comparison of radiometabolite analysis of [^18F]JHU94620 (Moldovan et al. [2016]). The mice were immobilized by short isoflurane narcosis for the injection of the radiotracer in a restrainer and awakened mice were kept in an isolated cage until euthanisation by cervical dislocation under isoflurane narcosis. Male Wistar rats (n = 12, 613–794 g) were used for radiometabolite analysis of [^18F]JHU94620-d8 at different time points (5, 15, 30 and 60 min p.i.) after intravenous tail vein injection of the radiotracer (37–74 MBq) for the correction of the input function in pharmacokinetic analysis. Rats were kept under isoflurane narcosis (gas mixture: 2.5% isoflurane and O2) on a warmed plate until euthanization by decapitation of deep narcotized animals. Plasma samples were obtained by centrifugation with 5500 g of blood samples for 2 min at 4 °C. Resected tissues brain and spleen were kept on ice and minced for 3 × 20 s with adding 0.5 to 1 mL of 0.9% NaCl using a Precellys lysing kit and Minilys homogenizer (Bertin Technologies SAS, Montigny-le-Bretonneux, France).
# The samples were further processed for subsequent radio-chromatographic analyses. Two consecutive extractions were performed in duplicates for plasma and brain determinations. Plasma, brain and spleen samples were added to the four time the volume of an ice-cold MeOH/H2O mixture (9:1, v/v). The samples were vortexed for 3 min, incubated on ice for 5 min and centrifuged at 8,600 g for 5 min. Supernatants were collected and the precipitates were re-dissolved in 100 µL of extraction solvent and the extraction procedure was repeated. The activities of supernatants and precipitates were measured in a γ-counter (1480 WIZARD, Perkin Elmer), and the extraction efficiencies were calculated as the ratio of radioactivity in the supernatant to the radioactivity in the original sample (supernatant + precipitate). The supernatants from both extractions were combined, concentrated at 70 °C under argon stream up to a remaining volume of 100 µL, and subsequently analysed by analytical radio-HPLC (method A or B).
# [2] = assay type: in vitro ADME; settings: Wistar, rat
# Experimental: as §1, with “The parametric maps were generated with the PXMOD module.” left out
# [3] = female, CD-1, mouse, in vivo, 30 min
# Sequence of hCB2R(D80N) (P34972 whole entry D80N): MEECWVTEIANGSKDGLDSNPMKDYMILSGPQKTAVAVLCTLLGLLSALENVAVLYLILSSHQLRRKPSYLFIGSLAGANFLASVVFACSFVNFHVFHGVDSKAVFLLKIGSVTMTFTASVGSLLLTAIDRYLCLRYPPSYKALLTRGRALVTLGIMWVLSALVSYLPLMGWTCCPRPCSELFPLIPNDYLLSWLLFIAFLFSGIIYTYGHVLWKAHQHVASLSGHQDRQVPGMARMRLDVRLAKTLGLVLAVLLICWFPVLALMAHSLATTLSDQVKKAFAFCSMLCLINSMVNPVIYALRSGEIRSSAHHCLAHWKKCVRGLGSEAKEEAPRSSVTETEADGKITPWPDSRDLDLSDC
compound,measurement,setting,value
[2H]C([2H])([18F])C([2H])([2H])C([2H])([2H])C([2H])([2H])n1c(C)c(C)s/c1=N\C(=O)C1C(C)(C)C1(C)C [[^18F]JHU94620-d8],"TAC peak value, Cerebellum",hCB2R(D80N),2.8 ± 0.2 SUVmean
same,"TAC peak value, Contralateral",hCB2R(D80N),3.3 ± 0.5 SUVmean
same,"Time-to-peak, Cerebellum",hCB2R(D80N),2.5 min
same,"Time-to-peak, Contralateral",hCB2R(D80N),3.5 min
same,"Time-to-peak, hCB2R(D80N)",hCB2R(D80N),10 min
same,"VT of hCB2R(D80N) region, times higher than other investigated brain regions",hCB2R(D80N),up to 23 times
same,SUVr60min hCB2R(D80N)-to-Cerebellum,hCB2R(D80N); 60 min,47 ± 4
same,SUVr60min hCB2R(D80N)-to-Contralateral,hCB2R(D80N); 60 min,10 ± 4
same,percentage printed at the radiotracer peak of the representative radio-HPLC chromatogram (Mice),"[1]; CD-1, mouse, in vivo, 30 min",80%
same,"parent fraction in brain, higher compared to the non-deuterated isotopologue","[1]; CD-1 mice, brain, 30 min p.i.",50%
same,parent fraction in brain,"[1]; CD-1 mice, brain, 30 min p.i., mean ± SD",0.72 ± 0.05
same,in vivo metabolic stability (comparison in words),"[1]; female, CD-1, mouse, in vivo, 0.5 h",slightly superior to [^18F]JHU94620-d4
same,parent fraction in blood plasma,[1]; [3],0.13 ± 0.04
same,parent fraction in spleen,[1]; [3],0.87 ± 0.10
same,free plasma fraction (fp),[2],0.3 ± 0.1
